The text below walks through data of patent US7626031B2, “Substituted 3-(diarylmethylene)indolin-2-ones and methods of their use” (Symphony Evolution, Inc., priority 2002, dated 2009).

pIC50: −log10 of the molar value.

The target of one test is Fyn (Homo sapiens, UniProt P06241). The test is described as follows: Kinase assay, Fyn. The format is biochemical. How it is done: (§1) Kinase activity and compound inhibition are investigated using one or more assay formats. The ATP concentrations for each assay are selected to be close to the Michaelis-Menten constant (KM) for each individual kinase. Dose-response experiments are performed at 10 different inhibitor concentrations in a 384-well plate format. […] Exemplary kinase assays are described below. KDR Assay
Chain of Fyn (P06241 whole entry, species assumed): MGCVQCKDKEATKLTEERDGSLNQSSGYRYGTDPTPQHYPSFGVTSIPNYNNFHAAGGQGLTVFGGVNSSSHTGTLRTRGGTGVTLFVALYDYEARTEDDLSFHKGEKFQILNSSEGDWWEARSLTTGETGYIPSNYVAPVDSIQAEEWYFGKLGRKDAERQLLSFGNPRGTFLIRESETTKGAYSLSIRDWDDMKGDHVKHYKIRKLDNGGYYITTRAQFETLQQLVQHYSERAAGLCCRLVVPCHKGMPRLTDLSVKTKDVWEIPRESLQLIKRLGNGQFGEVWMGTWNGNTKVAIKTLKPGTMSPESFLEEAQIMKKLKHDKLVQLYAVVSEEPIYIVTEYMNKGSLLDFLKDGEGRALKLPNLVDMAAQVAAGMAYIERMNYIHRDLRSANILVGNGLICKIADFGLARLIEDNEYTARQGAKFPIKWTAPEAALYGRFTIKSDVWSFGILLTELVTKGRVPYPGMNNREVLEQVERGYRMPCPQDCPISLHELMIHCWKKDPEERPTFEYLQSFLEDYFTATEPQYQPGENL

For the next test, the target named is IRK (Homo sapiens, UniProt P06213). The test is described as follows: Kinase assay, IRK. It counts as biochemical. How it is done: as §1
The target in a further test is FGFR1 (Homo sapiens, UniProt P11362). The test is described as follows: Kinase assay, FGFR1 (33P-ATP incorporation or luciferase-coupled ATP consumption). It counts as biochemical. How it is done:
(§2) Kinase assays were performed by measurement of incorporation of γ-^33P ATP into immobilized myelin basic protein (MBP). […] Plates were washed 3× with 100 μl TBS. […] Compound dilutions were performed in DMSO and added to assay wells to a final DMSO concentration of 1%. Each data point was measured in duplicate, and at least two duplicate assays were performed for each individual compound determination. Enzyme was added to final concentrations of 10 nM or 20 nM, for example. A mixture of unlabeled ATP and γ-^33P ATP was added to start the reaction (2×10^6 cpm of γ-^33P ATP per well (3000 Ci/mmole) and either 10 μM or 30 μM unlabeled ATP, typically. The reactions were carried out for 1 hour at room temperature with shaking. Plates were washed 7× with TBS, followed by the addition of 50 μl/well scintillation fluid (Wallac). Plates were read using a Wallac Trilux counter. This is only one format of such assays, various other formats are possible, as known to one of ordinary skill in the art.
(§3) Tyrosine kinase activity is determined by 1) measurement of kinase-dependent ATP consumption by in the presence of a generic substrate such as, polyglutamic acid, tyrosine, 4:1 (pEY), by luciferase/luciferin-mediated chemiluminescence or; 2) incorporation of radioactive phosphate derived from ^33P-ATP into a generic substrate which has been adsorbed onto the well surface of polystyrene microtiter plates. Phosphorylated substrate products are quantified by scintillation spectrometry.
as §1

In another test the target is EGFR (Homo sapiens, UniProt P00533). The test is described as follows: Kinase assay, EGFR (33P-ATP incorporation or luciferase-coupled ATP consumption). It counts as biochemical. How it is done:
as §2, §3, §1

The next test concerns the target PDGFR alpha (Homo sapiens, UniProt P16234). The test is described as follows: Kinase assay, PDGFR alpha (33P-ATP incorporation or luciferase-coupled ATP consumption). The format is biochemical. The following applies: read-out: PDGF-R-A IC50. How it is done: as §2, §3, §1
The target of a further test is EphA2 (Homo sapiens, UniProt P29317). The test is described as follows: Kinase assay, EphA2 (33P-ATP incorporation or luciferase-coupled ATP consumption). It counts as biochemical. How it is done:
as §2, §3, §1

The target in test [1] is T1, KDR (baculovirus expressed human KDR kinase domain D807-V1356) (Homo sapiens, UniProt P35968).
T1 construct: human KDR kinase domain D807-V1356; host or cells: baculovirus expression system
T1 sequence (P35968 807-1356): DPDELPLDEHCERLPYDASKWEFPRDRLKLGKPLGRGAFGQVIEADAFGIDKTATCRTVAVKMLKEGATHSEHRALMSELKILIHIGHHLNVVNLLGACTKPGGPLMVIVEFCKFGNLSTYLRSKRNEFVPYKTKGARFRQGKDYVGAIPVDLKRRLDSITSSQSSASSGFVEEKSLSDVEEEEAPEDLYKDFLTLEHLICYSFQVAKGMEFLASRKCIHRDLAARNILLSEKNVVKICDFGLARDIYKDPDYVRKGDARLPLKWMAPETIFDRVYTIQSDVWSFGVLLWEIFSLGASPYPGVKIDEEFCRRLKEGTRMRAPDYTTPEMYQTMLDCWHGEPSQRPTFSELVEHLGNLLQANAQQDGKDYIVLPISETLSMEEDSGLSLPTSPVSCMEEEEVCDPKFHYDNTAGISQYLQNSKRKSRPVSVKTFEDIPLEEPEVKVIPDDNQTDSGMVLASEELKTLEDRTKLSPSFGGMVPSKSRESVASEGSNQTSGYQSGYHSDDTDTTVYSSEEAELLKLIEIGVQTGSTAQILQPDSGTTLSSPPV
The test is described as follows: biochemical. How it is done:
as §1
KDR biochemical activity was assessed using a Luciferase-Coupled Chemiluminescent Kinase assay (LCCA) format. Kinase activity was measured as the percent ATP remaining following the kinase reaction. Remaining ATP was detected by luciferase-luciferin-coupled chemiluminescence. […] The mixture is incubated at ambient temperature for 4 hours after which 20 uL luciferase-luciferin mix is added and the chemiluminescent signal read using a Wallac Victor^2 reader.

Chain of PDGFR alpha (P16234 24-1089): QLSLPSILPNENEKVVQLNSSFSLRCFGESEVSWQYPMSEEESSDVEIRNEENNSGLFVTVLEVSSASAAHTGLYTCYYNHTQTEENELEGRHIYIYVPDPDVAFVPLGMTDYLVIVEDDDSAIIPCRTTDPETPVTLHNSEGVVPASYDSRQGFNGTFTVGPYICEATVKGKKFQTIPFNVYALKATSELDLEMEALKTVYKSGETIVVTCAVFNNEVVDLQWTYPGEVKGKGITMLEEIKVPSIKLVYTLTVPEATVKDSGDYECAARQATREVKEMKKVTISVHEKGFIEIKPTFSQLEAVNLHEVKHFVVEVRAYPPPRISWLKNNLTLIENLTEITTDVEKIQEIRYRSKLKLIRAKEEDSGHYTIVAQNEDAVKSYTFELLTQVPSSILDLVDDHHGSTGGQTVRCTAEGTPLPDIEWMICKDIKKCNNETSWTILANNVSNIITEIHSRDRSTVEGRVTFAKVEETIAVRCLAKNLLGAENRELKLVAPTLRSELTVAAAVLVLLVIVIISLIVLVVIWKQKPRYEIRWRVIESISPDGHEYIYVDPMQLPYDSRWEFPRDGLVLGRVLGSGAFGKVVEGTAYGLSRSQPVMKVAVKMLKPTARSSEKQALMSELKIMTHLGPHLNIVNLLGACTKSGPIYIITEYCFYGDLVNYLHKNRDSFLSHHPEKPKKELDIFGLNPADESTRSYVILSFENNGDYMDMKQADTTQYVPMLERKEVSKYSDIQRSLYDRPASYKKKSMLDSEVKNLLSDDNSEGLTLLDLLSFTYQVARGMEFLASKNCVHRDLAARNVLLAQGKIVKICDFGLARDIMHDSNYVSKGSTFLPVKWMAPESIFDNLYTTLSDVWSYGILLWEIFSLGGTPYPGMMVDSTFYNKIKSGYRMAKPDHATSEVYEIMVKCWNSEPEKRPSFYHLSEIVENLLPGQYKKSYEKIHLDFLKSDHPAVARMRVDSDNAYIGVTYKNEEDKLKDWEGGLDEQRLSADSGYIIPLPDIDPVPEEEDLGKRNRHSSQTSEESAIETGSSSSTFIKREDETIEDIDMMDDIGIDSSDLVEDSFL
Chain of EphA2 (P29317 24-976, species assumed): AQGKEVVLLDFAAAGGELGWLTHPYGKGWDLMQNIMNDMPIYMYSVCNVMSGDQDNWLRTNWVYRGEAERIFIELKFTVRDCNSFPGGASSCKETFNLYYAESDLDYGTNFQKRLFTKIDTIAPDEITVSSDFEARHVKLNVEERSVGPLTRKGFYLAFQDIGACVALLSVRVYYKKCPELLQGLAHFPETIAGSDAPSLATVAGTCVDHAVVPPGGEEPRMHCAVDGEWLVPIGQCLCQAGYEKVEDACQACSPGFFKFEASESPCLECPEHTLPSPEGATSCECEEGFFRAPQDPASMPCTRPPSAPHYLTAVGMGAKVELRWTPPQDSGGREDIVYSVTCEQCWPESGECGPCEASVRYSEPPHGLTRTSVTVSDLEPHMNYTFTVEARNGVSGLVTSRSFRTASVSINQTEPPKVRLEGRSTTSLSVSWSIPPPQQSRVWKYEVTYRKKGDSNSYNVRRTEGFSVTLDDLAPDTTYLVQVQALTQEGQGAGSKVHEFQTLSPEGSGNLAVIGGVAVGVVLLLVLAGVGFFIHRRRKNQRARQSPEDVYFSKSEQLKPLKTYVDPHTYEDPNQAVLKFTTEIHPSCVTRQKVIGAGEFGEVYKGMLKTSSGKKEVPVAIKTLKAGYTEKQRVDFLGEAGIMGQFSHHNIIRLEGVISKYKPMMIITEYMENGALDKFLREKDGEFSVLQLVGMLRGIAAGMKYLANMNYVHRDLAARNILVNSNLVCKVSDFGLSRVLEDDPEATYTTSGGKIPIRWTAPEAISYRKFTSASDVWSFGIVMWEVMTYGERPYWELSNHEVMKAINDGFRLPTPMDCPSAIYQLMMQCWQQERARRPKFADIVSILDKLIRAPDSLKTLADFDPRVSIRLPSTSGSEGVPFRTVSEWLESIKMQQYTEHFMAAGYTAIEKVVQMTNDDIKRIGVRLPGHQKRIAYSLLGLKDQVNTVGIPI
Chain of EGFR (P00533 25-1210, species assumed): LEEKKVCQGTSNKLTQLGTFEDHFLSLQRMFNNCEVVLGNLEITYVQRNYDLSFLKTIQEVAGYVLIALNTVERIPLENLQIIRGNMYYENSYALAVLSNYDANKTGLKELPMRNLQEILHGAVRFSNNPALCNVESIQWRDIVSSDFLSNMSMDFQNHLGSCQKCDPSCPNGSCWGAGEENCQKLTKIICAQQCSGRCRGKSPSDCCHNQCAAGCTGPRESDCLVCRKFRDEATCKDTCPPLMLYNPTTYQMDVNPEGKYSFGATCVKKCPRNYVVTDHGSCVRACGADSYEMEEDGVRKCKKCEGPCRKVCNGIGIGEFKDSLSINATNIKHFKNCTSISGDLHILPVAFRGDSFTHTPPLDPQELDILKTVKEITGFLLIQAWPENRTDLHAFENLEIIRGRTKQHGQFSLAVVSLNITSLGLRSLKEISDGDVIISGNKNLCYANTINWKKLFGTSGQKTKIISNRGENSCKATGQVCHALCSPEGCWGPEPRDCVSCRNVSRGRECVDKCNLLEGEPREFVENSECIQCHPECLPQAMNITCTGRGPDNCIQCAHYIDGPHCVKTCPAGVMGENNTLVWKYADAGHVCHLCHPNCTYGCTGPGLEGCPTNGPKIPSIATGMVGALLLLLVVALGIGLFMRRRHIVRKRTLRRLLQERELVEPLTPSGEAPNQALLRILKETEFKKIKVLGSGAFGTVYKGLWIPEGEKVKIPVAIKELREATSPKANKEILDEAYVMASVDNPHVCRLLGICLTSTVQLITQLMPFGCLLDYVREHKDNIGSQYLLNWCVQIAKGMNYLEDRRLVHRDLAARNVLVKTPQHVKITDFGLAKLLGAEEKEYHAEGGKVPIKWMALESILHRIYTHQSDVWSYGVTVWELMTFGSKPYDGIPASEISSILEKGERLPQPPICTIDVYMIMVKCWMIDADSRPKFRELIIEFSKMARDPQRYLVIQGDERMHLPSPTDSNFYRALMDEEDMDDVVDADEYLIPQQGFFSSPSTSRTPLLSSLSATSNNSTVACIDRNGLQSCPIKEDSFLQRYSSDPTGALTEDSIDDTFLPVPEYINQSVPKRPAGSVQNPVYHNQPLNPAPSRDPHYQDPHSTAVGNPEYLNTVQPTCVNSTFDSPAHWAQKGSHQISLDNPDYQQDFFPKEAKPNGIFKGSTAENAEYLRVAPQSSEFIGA
Chain of FGFR1 (P11362 22-822, species assumed): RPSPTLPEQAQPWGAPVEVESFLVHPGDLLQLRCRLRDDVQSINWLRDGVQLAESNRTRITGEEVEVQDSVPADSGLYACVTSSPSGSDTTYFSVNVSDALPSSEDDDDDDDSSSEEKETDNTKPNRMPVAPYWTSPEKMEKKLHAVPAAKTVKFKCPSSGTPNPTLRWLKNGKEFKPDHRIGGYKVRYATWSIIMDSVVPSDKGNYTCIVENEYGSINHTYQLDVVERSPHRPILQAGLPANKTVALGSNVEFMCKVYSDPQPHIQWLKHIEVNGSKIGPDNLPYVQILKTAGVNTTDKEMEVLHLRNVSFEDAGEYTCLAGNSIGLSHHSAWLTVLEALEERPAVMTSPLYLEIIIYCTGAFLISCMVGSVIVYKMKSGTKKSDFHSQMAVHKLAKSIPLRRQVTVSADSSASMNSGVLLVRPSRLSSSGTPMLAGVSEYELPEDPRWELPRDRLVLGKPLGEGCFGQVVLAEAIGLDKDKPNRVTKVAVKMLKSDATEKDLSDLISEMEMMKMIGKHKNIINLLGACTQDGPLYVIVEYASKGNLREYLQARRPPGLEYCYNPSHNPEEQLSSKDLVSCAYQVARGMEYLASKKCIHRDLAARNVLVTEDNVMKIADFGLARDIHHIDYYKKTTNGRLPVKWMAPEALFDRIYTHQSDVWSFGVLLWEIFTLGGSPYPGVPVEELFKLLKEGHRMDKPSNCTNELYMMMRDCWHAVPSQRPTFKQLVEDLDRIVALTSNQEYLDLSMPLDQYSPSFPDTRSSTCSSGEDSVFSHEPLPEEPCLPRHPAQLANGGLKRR

Consider `Cc1ccc(/C(=C2/C(=O)Nc3ccc(NC4CCN(C)CC4)cc32)c2ncc[nH]2)cc1` [Entry 86], for which the pIC50 is greater than 7.30 against Fyn; 5.30 to 6.30 against IRK; greater than 7.30 on FGFR1; 6.30 to 7.30 against EGFR; greater than 7.30 on PDGFR alpha; 6.30 to 7.30 against EphA2. The same molecule showed a pIC50 in test [1] greater than 7.30.
With `COCCN1CCC(Nc2ccc3c(c2)/C(=C(\c2ccc(F)c(Cl)c2)c2ncc[nH]2)C(=O)N3)CC1` [Entry 80], the pIC50 against Fyn was 6.30 to 7.30; against IRK, less than 5.30; against FGFR1, 6.30 to 7.30; against EGFR, less than 5.30; at PDGFR alpha, 6.30 to 7.30; against EphA2, 5.30 to 6.30. In test [1], this molecule showed a pIC50 greater than 7.30.
`CCN1CCC(Nc2ccc3c(c2)/C(=C(\c2cc(F)cc(F)c2)c2nc4cc(F)ccc4[nH]2)C(=O)N3)CC1` [Entry 62, (3Z)-3-[(3,5-difluorophenyl)(5-fluoro-1H-benzimidazol-2-yl)methylidene]-5-[(1-ethylpiperidin-4-yl)amino]-1,3-dihydro-2H-indol-2-one]: the pIC50 at Fyn is greater than 7.30; against IRK, less than 5.30; against FGFR1, greater than 7.30; at EGFR, 6.30 to 7.30; on PDGFR alpha, greater than 7.30; on EphA2, 5.30 to 6.30. Moreover, the pIC50 in test [1] is greater than 7.30.
Turning to `COCCN1CCC(Nc2ccc3c(c2)/C(=C(\c2ccc(C(F)(F)F)cc2)c2ncc[nH]2)C(=O)N3)CC1` [Entry 71], the negative-log IC50 (pIC50) on Fyn was 6.30 to 7.30; against IRK, less than 5.30; against FGFR1 it was greater than 7.30; on EGFR, less than 5.30; at PDGFR alpha, greater than 7.30; against EphA2, 5.30 to 6.30. The molecule further gave a negative logarithm of the IC50 (pIC50) in test [1] greater than 7.30.
`COCCN1CCC(Nc2ccc3c(c2)/C(=C(\c2cc(F)cc(F)c2)c2nc(C)c[nH]2)C(=O)N3)CC1` [Entry 76]: the negative logarithm of the IC50 (pIC50) against Fyn was greater than 7.30; against IRK, 5.30 to 6.30; against FGFR1, greater than 7.30; against EGFR, 6.30 to 7.30; at PDGFR alpha, greater than 7.30; at EphA2 it was 5.30 to 6.30. The pIC50 in test [1] is greater than 7.30.
Turning to `O=C1Nc2ccc(NC3CCN(CCN4CCOCC4)CC3)cc2/C1=C(\c1cccc(F)c1)c1ncc[nH]1` [Entry 83], the pIC50 on Fyn is 6.30 to 7.30; on IRK it was less than 5.30; against FGFR1, greater than 7.30; against EGFR it was less than 5.30; at PDGFR alpha, greater than 7.30; at EphA2 it was 5.30 to 6.30. The molecule further gave a pIC50 in test [1] greater than 7.30.
Regarding `COCCN1CCC(Nc2ccc3c(c2)/C(=C(\c2cccc(F)c2)c2nc(C)c[nH]2)C(=O)N3)CC1` [Entry 70, (3Z)-3-[(3-fluorophenyl)(4-methyl-1H-imidazol-2-yl)methylidene]-5-({1-[2-(methyloxy)ethyl]piperidin-4-yl}amino)-1,3-dihydro-2H-indol-2-one], the negative-log IC50 (pIC50) against Fyn is greater than 7.30; on IRK, 5.30 to 6.30; at FGFR1, greater than 7.30; against EGFR it was 6.30 to 7.30; on PDGFR alpha, greater than 7.30; against EphA2, 6.30 to 7.30. Besides, the pIC50 in test [1] was greater than 7.30.
As for `CCOC(=O)c1[nH]c(/C(=C2\C(=O)Nc3ccc(NC4CCN(CCOC)CC4)cc32)c2cccc(F)c2)nc1C` [Entry 88, ethyl 2-{(Z)-(3-fluorophenyl)[5-({1-[2-(methyloxy)ethyl]piperidin-4-yl}amino)-2-oxo-1,2-dihydro-3H-indol-3-ylidene]methyl}-4-methyl-1H-imidazole-5-carboxylate], the negative logarithm of the IC50 (pIC50) on Fyn is 6.30 to 7.30; against IRK it was less than 5.30; at FGFR1, 6.30 to 7.30; against EGFR it was less than 5.30; on PDGFR alpha, greater than 7.30; against EphA2, less than 5.30. Further, in test [1], the negative-log IC50 (pIC50) is 6.30 to 7.30.
For the molecule `COCCN1CCC(Nc2ccc3c(c2)/C(=C(\c2ccccc2)c2nc4cc(Cl)ccc4[nH]2)C(=O)N3)CC1` [Entry 72], the pIC50 against Fyn was 6.30 to 7.30; at IRK, less than 5.30; against FGFR1, greater than 7.30; on EGFR, less than 5.30; at PDGFR alpha it was greater than 7.30; against EphA2, 5.30 to 6.30. The same molecule gave a pIC50 in test [1] greater than 7.30.
Consider `COCCN1CCC(Nc2ccc3c(c2)/C(=C(\c2cc(F)cc(F)c2)c2ncc[nH]2)C(=O)N3)CC1` [Entry 75, (3Z)-3-[(3,5-difluorophenyl)(1H-imidazol-2-yl)methylidene]-5-({1-[2-(methyloxy)ethyl]piperidin-4-yl}amino)-1,3-dihydro-2H-indol-2-one], for which the negative logarithm of the IC50 (pIC50) is greater than 7.30 against Fyn; less than 5.30 against IRK; greater than 7.30 against FGFR1; 6.30 to 7.30 against EGFR; greater than 7.30 at PDGFR alpha; 5.30 to 6.30 on EphA2. The pIC50 in test [1] was greater than 7.30.
`COCCN1CCC(Nc2ccc3c(c2)/C(=C(\c2ccc(OC)cc2)c2ncc[nH]2)C(=O)N3)CC1` [Entry 90]: the pIC50 at Fyn is greater than 7.30; at IRK, less than 5.30; on FGFR1 it was 6.30 to 7.30; on EGFR, less than 5.30; on PDGFR alpha it was greater than 7.30; at EphA2, 5.30 to 6.30. This molecule also showed a negative logarithm of the IC50 (pIC50) in test [1] greater than 7.30.
With `O=C1Nc2ccc(NC3CCN(CCN4CCCCC4)CC3)cc2/C1=C(\c1cccc(F)c1)c1ncc[nH]1` [Entry 82], the pIC50 on Fyn was 6.30 to 7.30; against IRK, less than 5.30; against FGFR1, 6.30 to 7.30; against EGFR, less than 5.30; at PDGFR alpha it was 6.30 to 7.30; against EphA2 it was 5.30 to 6.30. In test [1], this molecule had a pIC50 of 6.30 to 7.30.
Consider `COCCN1CCC(Nc2ccc3c(c2)/C(=C(\c2ccc(C)c(F)c2)c2ncc[nH]2)C(=O)N3)CC1` [Entry 63, (3Z)-3-[(3-fluoro-4-methylphenyl)(1H-imidazol-2-yl)methylidene]-5-({1-[2-(methyloxy)ethyl]piperidin-4-yl}amino)-1,3-dihydro-2H-indol-2-one], for which the negative logarithm of the IC50 (pIC50) at Fyn was greater than 7.30; against IRK, 5.30 to 6.30; at FGFR1, greater than 7.30; against EGFR, 6.30 to 7.30; at PDGFR alpha, greater than 7.30; against EphA2, 6.30 to 7.30. For the same molecule, the pIC50 in test [1] was greater than 7.30.
For the molecule `O=C1Nc2ccc(NC3CCN(CCN4CCCC4)CC3)cc2/C1=C(\c1cccc(F)c1)c1ncc[nH]1` [Entry 85, (3Z)-3-[(3-fluorophenyl)(1H-imidazol-2-yl)methylidene]-5-{[1-(2-pyrrolidin-1-ylethyl)piperidin-4-yl]amino}-1,3-dihydro-2H-indol-2-one], the negative logarithm of the IC50 (pIC50) against Fyn was 6.30 to 7.30; on IRK it was less than 5.30; against FGFR1, 6.30 to 7.30; against EGFR, less than 5.30; at PDGFR alpha, greater than 7.30; against EphA2, 5.30 to 6.30. The pIC50 in test [1] is greater than 7.30.
Take `CCN1CCC(Nc2ccc3c(c2)/C(=C(\c2ccc(C(F)(F)F)nc2)c2ncc[nH]2)C(=O)N3)CC1` [Entry 68]: the negative logarithm of the IC50 (pIC50) at Fyn is 6.30 to 7.30; against IRK, less than 5.30; on FGFR1 it was 6.30 to 7.30; against EGFR, less than 5.30; at PDGFR alpha, greater than 7.30; against EphA2, 5.30 to 6.30. The same molecule gave a pIC50 in test [1] of 6.30 to 7.30.
As to `COCCN1CCC(Nc2ccc3c(c2)/C(=C(\c2ccc(F)c(F)c2)c2ncc[nH]2)C(=O)N3)CC1` [Entry 79], the pIC50 was 6.30 to 7.30 against Fyn; less than 5.30 against IRK; 6.30 to 7.30 against FGFR1; less than 5.30 at EGFR; greater than 7.30 at PDGFR alpha; 5.30 to 6.30 at EphA2. For the same molecule, the pIC50 in test [1] is greater than 7.30.
Consider `CCN1CCC(Nc2ccc3c(c2)/C(=C(/c2cc(F)cc(F)c2)c2nc4cc(F)ccc4[nH]2)C(=O)N3)CC1` [Entry 61, (3E)-3-[(3,5-difluorophenyl)(5-fluoro-1H-benzimidazol-2-yl)methylidene]-5-[(1-ethylpiperidin-4-yl)amino]-1,3-dihydro-2H-indol-2-one], for which the pIC50 was greater than 7.30 on Fyn; less than 5.30 on IRK; 6.30 to 7.30 at FGFR1; less than 5.30 against EGFR; greater than 7.30 at PDGFR alpha; less than 5.30 at EphA2. For the same molecule, the pIC50 in test [1] was greater than 7.30.

The pIC50 is the negative decadic logarithm of the IC50, by convention in mol/L.
